Assay results from ChEMBL document CHEMBL4825663 (J Med Chem, 2021).
pIC50: −log10 of the molar value. Converted amounts (≈) assume the structure as drawn.

How the values were obtained:
[1] = tested on: MES-SA/Dx5; assay: Selectivity index, ratio of EC50 for inhibition of P-gp (unknown origin) expressed in MES-SA/DX5 cells assessed as increase in paclitaxel-induced cytotoxicity in absence of compound to EC50 for inhibition of P-gp (unknown origin) expressed in MES-SA/DX5 cells assessed as increase in paclitaxel-induced cytotoxicity in presence of compound; type: cell-based; conditions: Homo sapiens
[2] = Apparent permeability from apical to basolateral side in MDCK-II cells after 120 mins by LC-MS/MS analysis; type: ADME, cell-based, Canis lupus familiaris; conditions: dog
[3] = Aqueous solubility of compound at neutral pH; type: physicochemical; conditions: aqueous solution
[4] = Aqueous solubility of compound at pH 5.5; type: physicochemical; conditions: aqueous solution
[5] = target: T1, Broad substrate specificity ATP-binding cassette transporter ABCG2 (Homo sapiens, UniProt Q9UNQ0); assay: Inhibition of sulfasalazine-stimulated BCRP ATP ase activity (unknown origin)
T1 sequence (Q9UNQ0 whole entry): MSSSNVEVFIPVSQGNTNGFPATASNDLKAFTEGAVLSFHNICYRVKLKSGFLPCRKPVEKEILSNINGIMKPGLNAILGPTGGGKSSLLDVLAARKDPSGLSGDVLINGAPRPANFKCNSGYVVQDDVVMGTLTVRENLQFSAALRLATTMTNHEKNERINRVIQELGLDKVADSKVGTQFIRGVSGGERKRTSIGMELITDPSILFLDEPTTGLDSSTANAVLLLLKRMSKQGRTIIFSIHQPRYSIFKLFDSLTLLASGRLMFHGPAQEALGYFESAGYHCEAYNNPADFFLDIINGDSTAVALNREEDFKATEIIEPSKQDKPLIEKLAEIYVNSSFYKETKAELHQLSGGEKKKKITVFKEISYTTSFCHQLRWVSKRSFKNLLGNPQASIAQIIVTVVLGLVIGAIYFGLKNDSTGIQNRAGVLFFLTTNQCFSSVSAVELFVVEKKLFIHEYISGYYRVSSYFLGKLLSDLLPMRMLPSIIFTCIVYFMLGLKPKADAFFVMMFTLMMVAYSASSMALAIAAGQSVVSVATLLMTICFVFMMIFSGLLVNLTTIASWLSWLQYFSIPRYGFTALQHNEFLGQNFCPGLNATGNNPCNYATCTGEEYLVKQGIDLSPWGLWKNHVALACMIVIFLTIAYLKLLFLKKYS

[6] = target: ATP-dependent translocase ABCB1 (Homo sapiens, UniProt P08183); assay: Inhibition of paclitaxel stimulated- P-gp ATPase activity (unknown origin)
ATP-dependent translocase ABCB1, sequence (P08183 whole entry): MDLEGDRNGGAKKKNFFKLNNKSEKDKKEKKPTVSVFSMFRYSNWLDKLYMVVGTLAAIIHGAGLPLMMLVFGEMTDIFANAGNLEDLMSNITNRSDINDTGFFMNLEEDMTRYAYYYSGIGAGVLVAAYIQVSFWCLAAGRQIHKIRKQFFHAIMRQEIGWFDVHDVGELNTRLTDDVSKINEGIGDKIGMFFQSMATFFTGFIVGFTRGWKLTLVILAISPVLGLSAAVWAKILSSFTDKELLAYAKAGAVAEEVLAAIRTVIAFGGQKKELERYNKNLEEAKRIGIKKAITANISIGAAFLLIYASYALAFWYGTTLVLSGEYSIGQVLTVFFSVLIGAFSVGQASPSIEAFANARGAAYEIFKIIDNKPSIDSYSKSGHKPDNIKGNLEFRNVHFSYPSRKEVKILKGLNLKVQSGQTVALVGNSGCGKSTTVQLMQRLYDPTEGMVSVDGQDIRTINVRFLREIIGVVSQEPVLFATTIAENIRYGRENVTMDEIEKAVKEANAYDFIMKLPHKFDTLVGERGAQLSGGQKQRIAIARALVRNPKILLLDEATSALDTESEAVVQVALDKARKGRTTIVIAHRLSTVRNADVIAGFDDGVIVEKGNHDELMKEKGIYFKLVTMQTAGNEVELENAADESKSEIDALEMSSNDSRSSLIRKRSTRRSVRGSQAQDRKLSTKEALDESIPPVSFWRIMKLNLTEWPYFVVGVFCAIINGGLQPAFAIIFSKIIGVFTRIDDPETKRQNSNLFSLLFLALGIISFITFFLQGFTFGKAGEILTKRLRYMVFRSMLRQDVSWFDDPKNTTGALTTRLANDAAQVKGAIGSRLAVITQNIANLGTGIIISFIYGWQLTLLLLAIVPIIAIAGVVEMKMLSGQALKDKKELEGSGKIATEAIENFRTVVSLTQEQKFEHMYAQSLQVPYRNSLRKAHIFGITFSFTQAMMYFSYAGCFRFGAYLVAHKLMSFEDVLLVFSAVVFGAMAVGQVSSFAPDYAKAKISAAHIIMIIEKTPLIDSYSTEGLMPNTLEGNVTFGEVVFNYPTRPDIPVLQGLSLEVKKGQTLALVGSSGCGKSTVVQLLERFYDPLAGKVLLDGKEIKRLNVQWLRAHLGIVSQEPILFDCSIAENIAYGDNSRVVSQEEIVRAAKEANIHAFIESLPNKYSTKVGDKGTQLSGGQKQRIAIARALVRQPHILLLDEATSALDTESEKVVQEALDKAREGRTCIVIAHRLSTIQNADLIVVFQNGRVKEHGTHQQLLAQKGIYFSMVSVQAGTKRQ

| SMILES | Ratio EC50 [1] | further results |
| --- | --- | --- |
| COc1cc2c(cc1OC)CN(CCc1ccc(-n3nnc(-c4cc(OC)c(OC)cc4NC(=O)c4coc5ccccc5c4=O)n3)cc1)CC2 | 2.1 | – |
| COc1cc2c(cc1OC)CN(CCc1ccc(-n3nnc(-c4cc(OC)c(OC)cc4NC(=O)c4cc(=O)c5cc(F)ccc5o4)n3)cc1)CC2 | 39.3 | – |
| O[C@@H](COc1cccc2ncccc12)CN1CCN([C@@H]2c3ccccc3[C@@H]3[C@H](c4ccccc42)C3(F)F)CC1 [ZOSUQUIDAR] | – | Papp A→B at 2 h [2]: 1.1 ×10⁻⁶ cm/s |
| COc1cc2c(cc1OC)CN(CCc1ccc(-n3nnc(-c4cc(OC)c(OC)cc4NC(=O)c4ccccc4)n3)cc1)CC2 | 3.4 | – |
| COc1cc2c(cc1OC)CN(CCc1ccc(-n3nnc(-c4cc(OC)c(OC)cc4NC(=O)c4cncc5ccccc45)n3)cc1)CC2 | 3.3 | – |
| COc1cc2c(cc1OC)CN(CCc1ccc(-n3nnc(-c4cc(OC)c(OC)cc4NC(=O)c4cnc5ccccc5c4)n3)cc1)CC2 | 20.3 | – |
| COc1cc2c(cc1OC)CN(CCc1ccc(-n3nnc(-c4cc(OC)c(OC)cc4NC(=O)c4cccc5cccnc45)n3)cc1)CC2 | 4.3 | – |
| COc1cc2c(cc1OC)CN(CCc1ccc(-n3nnc(-c4cc(OC)c(OC)cc4NC(=O)c4ccoc4)n3)cc1)CC2 | 3.5 | – |
| COc1cc2c(cc1OC)CN(CCc1ccc(NC(=O)c3cccc4c(=O)c5cccc(OC)c5[nH]c34)cc1)CC2 | – | Papp A→B at 2 h [2]: 0.1 ×10⁻⁶ cm/s; solubility [3]: 0.123 µg/mL (≈ 0.218 µM) |
| COc1cc2c(cc1OC)CN(CCc1ccc(-n3nnc(-c4cc(OC)c(OC)cc4NC(=O)c4ccc5ccccc5c4)n3)cc1)CC2 | 2.6 | – |
| COc1cc2c(cc1OC)CN(CCc1ccc(-n3nnc(-c4cc(OC)c(OC)cc4NC(=O)c4cc(=O)c5cc(C)ccc5o4)n3)cc1)CC2 | 73.4 | – |
| COc1cc2c(cc1OC)CN(CCc1ccc(-n3nnc(-c4cc(OC)c(OC)cc4NC(=O)c4ccsc4)n3)cc1)CC2 | 4.5 | – |
| COc1cc2c(cc1OC)CN(CCc1ccc(-n3nnc(-c4cc(OC)c(OC)cc4NC(=O)c4cc(=O)c5c(OC)cccc5o4)n3)cc1)CC2 | 49.9 | – |
| COc1cc2c(cc1OC)CN(CCc1ccc(-n3nnc(-c4cc(OC)c(OC)cc4NC(=O)c4ccc(F)c(F)c4)n3)cc1)CC2 | 3.7 | – |
| COc1cc2c(cc1OC)CN(CCc1ccc(-n3nnc(-c4cc(OC)c(OC)cc4NC(=O)c4cc5ccccc5cn4)n3)cc1)CC2 | 3.5 | – |
| COc1cc2c(cc1OC)CN(CCc1ccc(-n3nnc(-c4cc(OC)c(OC)cc4NC(=O)c4nccc5ccccc45)n3)cc1)CC2 | 1.8 | – |
| COc1cc2c(cc1OC)CN(CCc1ccc(-n3nnc(-c4cc(OC)c(OC)cc4NC(=O)c4cnccn4)n3)cc1)CC2 | 3 | – |
| COc1cc2c(cc1OC)CN(CCc1ccc(NC(=O)c3cc(OC)c(OC)cc3NC(=O)c3cnc4ccccc4c3)cc1)CC2 | – | Papp A→B at 2 h [2]: 1.1 ×10⁻⁶ cm/s; solubility [4]: 2500 µg/mL (≈ 3870 µM); pIC50 [5]: 6.74; pIC50 [6]: 7.49 |
| COc1cc2c(cc1OC)CN(CCc1ccc(-n3nnc(-c4cc(OC)c(OC)cc4NC(=O)c4cccnc4)n3)cc1)CC2 | 3 | – |
| COc1cc2c(cc1OC)CN(CCc1ccc(-n3nnc(-c4cc(OC)c(OC)cc4NC(=O)c4ccc5ccccc5n4)n3)cc1)CC2 | 2.7 | – |
